Data from patent US20230278972A1, “SUBSTITUTED HALOALKYL SULFONANILIDE HERBICIDES” (FMC Corporation, priority 2020, published 2023).

Columns and labels:
Format in all cases: in vivo
[1] = tested on: barnyardgrass (Echinochloa crus-galli); assay: Test A preemergence, barnyardgrass; details: Preemergence; for Plant response rating, Barnyardgrass: visual injury, 0 to 100 scale (0 no effect, 100 complete control), approx. 10 days; for Barnyardgrass plant response rating: visual injury on 0 to 100 scale (0 no effect, 100 complete control), approximately 10 days
Method in brief: (§1)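 After sowing into a sand-amended loam, pots for the preemergence test were treated by spraying directly onto soil. In parallel, seedlings at the one- to two-leaf stage and 2 to 10 cm tall were treated postemergence with the identical surfactant-containing formulation.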

[2] = tested on: kochia (Bassia scoparia); assay: Test A preemergence, kochia; details: Preemergence; for Plant response rating, Kochia: visual injury, 0 to 100 scale (0 no effect, 100 complete control), approx. 10 days; for Kochia plant response rating: visual injury on 0 to 100 scale (0 no effect, 100 complete control), approximately 10 days
Method in brief: as §1

[3] = tested on: ragweed (common ragweed, Ambrosia artemisiifolia); assay: Test A preemergence, ragweed; details: Preemergence; for Plant response rating, Ragweed: visual injury, 0 to 100 scale (0 no effect, 100 complete control), approx. 10 days; for Ragweed plant response rating: visual injury on 0 to 100 scale (0 no effect, 100 complete control), approximately 10 days
Method in brief: as §1

[4] = tested on: Ryegrass, Italian (Italian ryegrass, Lolium multiflorum); assay: Test A preemergence, Ryegrass, Italian; details: Preemergence; for Plant response rating, Ryegrass, Italian: visual injury, 0 to 100 scale (0 no effect, 100 complete control), approx. 10 days; for Ryegrass, Italian plant response rating: visual injury on 0 to 100 scale (0 no effect, 100 complete control), approximately 10 days
Method in brief: as §1

[5] = tested on: Foxtail, Giant (giant foxtail, Setaria faberi); assay: Test A preemergence, Foxtail, Giant; details: Preemergence; for Plant response rating, Foxtail, Giant: visual injury, 0 to 100 scale (0 no effect, 100 complete control), approx. 10 days; for Foxtail, Giant plant response rating: visual injury on 0 to 100 scale (0 no effect, 100 complete control), approximately 10 days
Method in brief: as §1

[6] = tested on: pigweed (Amaranthus retroflexus); assay: Test A preemergence, pigweed; details: for Plant response rating, Pigweed: visual injury, 0 to 100 scale (0 no effect, 100 complete control), approx. 10 days; for Pigweed plant response rating: visual injury on 0 to 100 scale (0 no effect, 100 complete control), approximately 10 days
Method in brief: (§2)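 Greenhouse pot test in a loam–sand blend; compounds delivered in a non-phytotoxic solvent carrying a surfactant, applied either as a directed spray to soil at seeding or over seedlings 2 to 10 cm high with one to two leaves.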

[7] = tested on: barnyardgrass (Echinochloa crus-galli); assay: Test A postemergence, barnyardgrass; details: Postemergence, 0 to 100 scale (0 no effect, 100 complete control)
Method in brief: as §2

[8] = tested on: kochia (Bassia scoparia); assay: Test A postemergence, kochia; details: Postemergence
Method in brief: as §1

[9] = tested on: ragweed (common ragweed, Ambrosia artemisiifolia); assay: Test A postemergence, ragweed; details: Postemergence
Method in brief: as §1

[10] = tested on: Ryegrass, Italian (Italian ryegrass, Lolium multiflorum); assay: Test A postemergence, Ryegrass, Italian; details: Postemergence
Method in brief: as §1

[11] = tested on: Foxtail, Giant (giant foxtail, Setaria faberi); assay: Test A postemergence, Foxtail, Giant; details: Postemergence
Method in brief: as §1

[12] = tested on: pigweed (Amaranthus retroflexus); assay: Test A postemergence, pigweed; details: Postemergence
Method in brief: as §1

[13] = tested on: wheat (Triticum aestivum); assay: Test A postemergence, wheat; details: Postemergence
Method in brief: as §2

[14] = tested on: corn (Zea mays); assay: Test A postemergence, corn; details: Postemergence
Method in brief: as §1

[15] = tested on: blackgrass (Alopecurus myosuroides); assay: Test A postemergence, blackgrass; details: Postemergence, 0 to 100 scale (0 no effect, 100 complete control)
Method in brief: as §1

[16] = tested on: galium (catchweed bedstraw, Galium aparine); assay: Test A postemergence, galium; details: Postemergence
Method in brief: as §2

[17] = 500 g ai/ha, visual injury approx. 10 days
[18] = 125 g ai/ha, 0 to 100 scale (0 no effect, 100 complete control)
[19] = 500 g ai/ha, visual injury approx. 10 days, 0 to 100 scale (0 no effect, 100 complete control)
[20] = 125 g ai/ha, visual injury approx. 10 days
[21] = 31 g ai/ha, visual injury on 0 to 100 scale (0 no effect, 100 complete control), approx. 10 days
[22] = 125 g ai/ha, visual injury approx. 10 days, 0 to 100 scale (0 no effect, 100 complete control)

Structure (SMILES): Cc1cc(C)c(N(S(=O)(=O)C(F)(F)F)S(=O)(=O)C(F)(F)F)cc1N1CCC2(CCCC2)C1=O [Compound 280]
- Plant response rating, Barnyardgrass ([1]; 125 g ai/ha): 90
- Barnyardgrass plant response rating ([1]; 500 g ai/ha): 90
- Plant response rating, Kochia ([2]; 125 g ai/ha): 40
- Kochia plant response rating ([2]; 500 g ai/ha): 70
- Plant response rating, Ragweed ([3]; 125 g ai/ha): 30
- Ragweed plant response rating ([3]; 500 g ai/ha): 70
- Plant response rating, Ryegrass, Italian ([4]; 125 g ai/ha): 100
- Ryegrass, Italian plant response rating ([4]; 500 g ai/ha): 100
- Plant response rating, Foxtail, Giant ([5]; 125 g ai/ha): 100
- Foxtail, Giant plant response rating ([5]; 500 g ai/ha): 100
- Plant response rating, Pigweed ([6]; 125 g ai/ha): 70
- Pigweed plant response rating ([6]; 500 g ai/ha): 100
- Plant response rating, Barnyardgrass ([7]; 125 g ai/ha): 20
- Plant response rating, Barnyardgrass [7, 17]: 90
- Plant response rating, Kochia [8, 18]: 20
- Plant response rating, Kochia [8, 19]: 50
- Plant response rating, Ragweed [9, 18]: 30
- Plant response rating, Ragweed [9, 19]: 50
- Plant response rating, Ryegrass, Italian [10, 18]: 40
- Plant response rating, Ryegrass, Italian [10, 19]: 70
- Plant response rating, Foxtail, Giant [11, 18]: 0
- Plant response rating, Foxtail, Giant [11, 19]: 20
- Plant response rating, Pigweed [12, 18]: 60
- Plant response rating, Pigweed [12, 19]: 90
- Plant response rating, Wheat [13, 18]: 40
- Plant response rating, Wheat [13, 19]: 60
- Plant response rating, Corn [14, 18]: 0
- Plant response rating, Corn [14, 19]: 10
- Plant response rating, Blackgrass ([15]; 125 g ai/ha): 0
- Plant response rating, Blackgrass [15, 17]: 0
- Plant response rating, Galium [16, 18]: 80
- Plant response rating, Galium [16, 19]: 90

Structure (SMILES): CCCCC(=O)OCN(c1cc(C2=NOC3(CCCC3)C2)c(C)cc1C)S(=O)(=O)C(F)(F)F [Compound 143]
- Plant response rating, Barnyardgrass ([1]; 31 g ai/ha): 80
- Barnyardgrass plant response rating ([1]; 125 g ai/ha): 90
- Plant response rating, Kochia ([2]; 31 g ai/ha): 0
- Kochia plant response rating ([2]; 125 g ai/ha): 20
- Plant response rating, Ragweed ([3]; 31 g ai/ha): 0
- Ragweed plant response rating ([3]; 125 g ai/ha): 0
- Plant response rating, Ryegrass, Italian ([4]; 31 g ai/ha): 90
- Ryegrass, Italian plant response rating ([4]; 125 g ai/ha): 90
- Plant response rating, Foxtail, Giant ([5]; 31 g ai/ha): 50
- Foxtail, Giant plant response rating ([5]; 125 g ai/ha): 100
- Plant response rating, Pigweed ([6]; 31 g ai/ha): 60
- Pigweed plant response rating ([6]; 125 g ai/ha): 100
- Plant response rating, Barnyardgrass ([7]; 31 g ai/ha): 0
- Plant response rating, Barnyardgrass [7, 20]: 50
- Plant response rating, Kochia [8, 21]: 10
- Plant response rating, Kochia [8, 22]: 20
- Plant response rating, Ragweed [9, 21]: 0
- Plant response rating, Ragweed [9, 18]: 10
- Plant response rating, Ryegrass, Italian [10, 21]: 0
- Plant response rating, Ryegrass, Italian [10, 18]: 20
- Plant response rating, Foxtail, Giant [11, 21]: 0
- Plant response rating, Foxtail, Giant [11, 22]: 30
- Plant response rating, Pigweed [12, 21]: 20
- Plant response rating, Pigweed [12, 18]: 40
- Plant response rating, Wheat [13, 21]: 20
- Plant response rating, Wheat [13, 18]: 50
- Plant response rating, Corn [14, 21]: 0
- Plant response rating, Corn [14, 22]: 20
- Plant response rating, Blackgrass ([15]; 31 g ai/ha): 60
- Plant response rating, Blackgrass [15, 20]: 0
- Plant response rating, Galium [16, 21]: 50
- Plant response rating, Galium [16, 22]: 40

Structure (SMILES): Cc1cc(C)c(N(S(=O)(=O)C(F)(F)F)S(=O)(=O)C(F)(F)F)cc1C(=O)N1CCCOCC1 [Compound 276]
- Plant response rating, Barnyardgrass ([1]; 125 g ai/ha): 70
- Barnyardgrass plant response rating ([1]; 500 g ai/ha): 100
- Plant response rating, Kochia ([2]; 125 g ai/ha): 0
- Kochia plant response rating ([2]; 500 g ai/ha): 0
- Plant response rating, Ragweed ([3]; 125 g ai/ha): 40
- Ragweed plant response rating ([3]; 500 g ai/ha): 70
- Plant response rating, Ryegrass, Italian ([4]; 125 g ai/ha): 30
- Ryegrass, Italian plant response rating ([4]; 500 g ai/ha): 80
- Plant response rating, Foxtail, Giant ([5]; 125 g ai/ha): 100
- Foxtail, Giant plant response rating ([5]; 500 g ai/ha): 100
- Plant response rating, Pigweed ([6]; 125 g ai/ha): 80
- Pigweed plant response rating ([6]; 500 g ai/ha): 100
- Plant response rating, Barnyardgrass ([7]; 125 g ai/ha): 60
- Plant response rating, Barnyardgrass [7, 17]: 90
- Plant response rating, Kochia [8, 18]: 20
- Plant response rating, Kochia [8, 19]: 60
- Plant response rating, Ragweed [9, 18]: 50
- Plant response rating, Ragweed [9, 19]: 80
- Plant response rating, Ryegrass, Italian [10, 18]: 0
- Plant response rating, Ryegrass, Italian [10, 19]: 10
- Plant response rating, Foxtail, Giant [11, 18]: 10
- Plant response rating, Foxtail, Giant [11, 19]: 90
- Plant response rating, Pigweed [12, 18]: 60
- Plant response rating, Pigweed [12, 19]: 80
- Plant response rating, Wheat [13, 18]: 0
- Plant response rating, Wheat [13, 19]: 20
- Plant response rating, Corn [14, 18]: 0
- Plant response rating, Corn [14, 19]: 20
- Plant response rating, Blackgrass ([15]; 125 g ai/ha): 0
- Plant response rating, Blackgrass [15, 17]: 0
- Plant response rating, Galium [16, 18]: 80
- Plant response rating, Galium [16, 19]: 90
